Assays:
[1] = biological target: Transient receptor potential cation channel subfamily V member 1 (Homo sapiens, UniProt Q8NER1); assay: Antagonist activity at human TRPV1 assessed as inhibition of calcium influx; type: functional
Rattus norvegicus [2] = assay: Antihyperalgesic activity in po dosed rat assessed as inhibition of CFA-induced hyperalgesia; type: functional
Rattus norvegicus [3] = assay: Analgesic activity in rat assessed as inhibition of MIA-induced osteoarthritis pain at 30 umol/kg, po; type: functional
Rattus norvegicus [4] = assay: Antihyperalgesic activity in po dosed rat assessed as inhibition of carrageenan-induced hyperalgesia; type: functional
[5] = Ratio of drug uptake in brain to plasma in rat; type: ADME
Rattus norvegicus [6] = assay: Analgesic activity in rat assessed as inhibition of capsaicin-induced acute pain at 30 umol/kg, po; type: functional
CYP3A4 = CYP3A4 (Homo sapiens, UniProt P08684); assay: Inhibition of CYP3A4 at 10 uM; type: ADME
Sequence of CYP3A4 (P08684 whole entry): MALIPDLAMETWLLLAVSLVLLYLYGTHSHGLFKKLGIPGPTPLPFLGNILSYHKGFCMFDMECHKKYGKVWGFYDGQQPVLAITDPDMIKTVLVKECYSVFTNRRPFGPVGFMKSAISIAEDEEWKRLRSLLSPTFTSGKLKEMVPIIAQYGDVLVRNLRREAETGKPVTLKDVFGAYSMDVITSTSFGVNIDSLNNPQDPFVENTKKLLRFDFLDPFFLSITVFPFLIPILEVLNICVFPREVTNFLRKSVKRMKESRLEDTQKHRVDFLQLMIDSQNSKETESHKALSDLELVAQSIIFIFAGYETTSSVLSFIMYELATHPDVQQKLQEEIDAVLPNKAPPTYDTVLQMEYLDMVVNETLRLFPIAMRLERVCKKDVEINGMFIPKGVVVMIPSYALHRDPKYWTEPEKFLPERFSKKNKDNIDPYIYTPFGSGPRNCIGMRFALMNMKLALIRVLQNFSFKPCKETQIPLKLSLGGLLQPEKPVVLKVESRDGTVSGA

Sequence of Transient receptor potential cation channel subfamily V member 1 (Q8NER1 whole entry): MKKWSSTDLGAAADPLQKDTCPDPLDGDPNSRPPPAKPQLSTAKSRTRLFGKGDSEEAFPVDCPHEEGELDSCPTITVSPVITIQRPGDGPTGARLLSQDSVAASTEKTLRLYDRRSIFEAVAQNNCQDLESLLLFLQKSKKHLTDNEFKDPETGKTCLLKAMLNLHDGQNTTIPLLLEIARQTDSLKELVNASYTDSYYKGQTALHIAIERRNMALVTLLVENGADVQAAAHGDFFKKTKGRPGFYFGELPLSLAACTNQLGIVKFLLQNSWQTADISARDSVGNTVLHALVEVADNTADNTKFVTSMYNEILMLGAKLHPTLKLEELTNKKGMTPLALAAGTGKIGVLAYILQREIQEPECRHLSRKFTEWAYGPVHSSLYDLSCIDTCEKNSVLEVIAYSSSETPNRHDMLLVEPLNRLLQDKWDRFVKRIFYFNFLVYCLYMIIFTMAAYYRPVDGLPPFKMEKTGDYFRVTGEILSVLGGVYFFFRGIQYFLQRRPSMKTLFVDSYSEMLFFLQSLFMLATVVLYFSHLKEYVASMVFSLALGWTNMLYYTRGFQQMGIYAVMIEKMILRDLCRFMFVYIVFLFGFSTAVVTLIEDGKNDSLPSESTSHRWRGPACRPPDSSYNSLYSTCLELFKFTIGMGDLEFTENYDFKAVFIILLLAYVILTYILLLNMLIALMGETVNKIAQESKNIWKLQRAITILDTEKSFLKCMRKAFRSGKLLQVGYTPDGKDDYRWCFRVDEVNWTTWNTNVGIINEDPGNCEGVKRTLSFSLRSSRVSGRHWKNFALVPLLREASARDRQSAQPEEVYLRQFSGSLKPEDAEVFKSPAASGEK

| Structure (SMILES) | IC50 [1] [nM] | further results |
| --- | --- | --- |
| CC(C)(C)c1ccc2c(c1)OCCC2NC(=O)Nc1cccc2[nH]ncc12 (stereo unspecified) | 43 |  |
| O=C(Nc1cccc2[nH]ncc12)NC1CCOc2ccccc21 (stereo unspecified) | 234 |  |
| CC(C)(C)c1cccc2c1OCCC2NC(=O)Nc1cccc2[nH]ncc12 (stereo unspecified) | 5 | ED50 (Rattus norvegicus [2]): 15 µmol/kg; inhibition in vivo at 30 µmol/kg (Rattus norvegicus [3]): 56%; ED50 (Rattus norvegicus [4]): 10 µmol/kg; Kp [5]: 0.42; inhibition in vivo at 30 µmol/kg (Rattus norvegicus [6]): 89% |
| O=C(Nc1cccc2[nH]ncc12)NC1CCOc2cc(OC(F)(F)F)ccc21 (stereo unspecified) | 8 |  |
| O=C(Nc1cccc2[nH]ncc12)NC1CCOc2ccc(F)cc21 (stereo unspecified) | 718 |  |
| COc1ccc2c(c1)C(NC(=O)Nc1cccc3[nH]ncc13)CCN2Cc1ccccc1 (stereo unspecified) | 160 | inhibition at 10 µM (CYP3A4): 97% |
| CC(C)(C)c1cccc2c1OCC[C@H]2NC(=O)Nc1cccc2[nH]ncc12 | 3 |  |
| CC(C)(C)c1cccc2c1OCC[C@@H]2NC(=O)Nc1cccc2[nH]ncc12 | 19 |  |
| CN1CCC(NC(=O)Nc2cccc3[nH]ncc23)c2ccc(C(C)(C)C)cc21 (stereo unspecified) | 115 |  |
| CN1CCC(NC(=O)Nc2cccc3[nH]ncc23)c2cc(C(C)(C)C)ccc21 (stereo unspecified) | 853 |  |
| CN1CCC(NC(=O)Nc2cccc3[nH]ncc23)c2ccc(F)cc21 (stereo unspecified) | 34 | inhibition at 10 µM (CYP3A4): 66% |
| COc1ccc2c(c1)C(NC(=O)Nc1cccc3[nH]ncc13)CCN2C (stereo unspecified) | 1380 | inhibition at 10 µM (CYP3A4): 59% |
| CC(C)(C)c1ccc2c(c1)OCC[C@H]2NC(=O)Nc1cccc2[nH]ncc12 | 31 |  |
| Cc1ccc2c(c1)C(NC(=O)Nc1cccc3[nH]ncc13)CCO2 (stereo unspecified) | 933 |  |
| CC(C)(C)c1ccc2c(c1)OCC[C@@H]2NC(=O)Nc1cccc2[nH]ncc12 | 1200 |  |
| CN1CCC(NC(=O)Nc2cccc3[nH]ncc23)c2ccc(C(F)(F)F)cc21 (stereo unspecified) |  | inhibition at 10 µM (CYP3A4): 47% |
| CN1CCC(NC(=O)Nc2cccc3[nH]ncc23)c2ccccc21 (stereo unspecified) | 215 | inhibition at 10 µM (CYP3A4): 65% |
| O=C(Nc1cccc2[nH]ncc12)N[C@@H]1CCOc2cc(C(F)(F)F)ccc21 | 4 |  |
| O=C(Nc1cccc2[nH]ncc12)NC1CCOc2c(OC(F)(F)F)cccc21 (stereo unspecified) | 5 |  |
| CN1CCC(NC(=O)Nc2cccc3[nH]ncc23)c2cccc(C(C)(C)C)c21 (stereo unspecified) | 6 |  |
| O=C(Nc1cccc2[nH]ncc12)NC1CCOc2c1cccc2N1CCOCC1 (stereo unspecified) | 110 |  |
| O=C(Nc1cccc2[nH]ncc12)NC1CCOc2c1cccc2N1CCCCC1 (stereo unspecified) | 16 |  |
| COc1ccc2c(c1)C(NC(=O)Nc1cccc3[nH]ncc13)CCN2CC1CCCCC1 (stereo unspecified) | 196 | inhibition at 10 µM (CYP3A4): 93% |
| O=C(Nc1cccc2[nH]ncc12)NC1CCOc2c1cccc2C(F)(F)F (stereo unspecified) | 5 |  |
| O=C(Nc1cccc2[nH]ncc12)NC1CCN(Cc2ccccc2)c2ccc(F)cc21 (stereo unspecified) | 66 |  |
| CC(C)CCN1CCC(NC(=O)Nc2cccc3[nH]ncc23)c2cccc(Cl)c21 (stereo unspecified) | 11 |  |
| O=C(Nc1cccc2[nH]ncc12)NC1CCOc2c(C3CCCCC3)cccc21 (stereo unspecified) | 15 |  |
| CC(C)(C)c1ccc2c(c1)C(NC(=O)Nc1cccc3[nH]ncc13)CCN2Cc1ccccc1 (stereo unspecified) | 121 |  |
| O=C(Nc1cccc2[nH]ncc12)NC1CCN(Cc2ccccc2)c2ccccc21 (stereo unspecified) | 70 | inhibition at 10 µM (CYP3A4): 94% |
| O=C(Nc1cccc2[nH]ncc12)N[C@H]1CCOc2cc(C(F)(F)F)ccc21 | 43 |  |
